These results are taken from PubChem BioAssay (NCI).

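Values below derive from 48-hour exposures of cells grown in 96-well plates, with endpoints linearly interpolated between the two concentrations bracketing the appropriate inhibition level. GI50 marks 50% less growth. Definition used: TGI = concentration required for complete inhibition of growth.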

Test systems include RXF 393 renal; OVCAR-5 ovarian; BT-549 breast; SK-MEL-2 melanoma; SK-MEL-5 melanoma; OVCAR-4 ovarian; HL-60(TB) leukemia; NCI-H23 lung; T-47D breast; HOP-92 NSCLC.
Common to all, as to assay: NCI anticancer screen, dose series, 48 h

`CC(C)CCc1c(Cl)nc(Cl)nc1Cl`: the TGI is 11.5 µM in the assay with RXF 393 renal; 55 µM in the assay with OVCAR-5 ovarian; 12.3 µM with BT-549 breast; greater than 100 µM with SK-MEL-2 melanoma; 16.4 µM in the assay on SK-MEL-5 melanoma; 44.2 µM in the assay with OVCAR-4 ovarian. Also, in the assay with HL-60(TB) leukemia, the TGI was greater than 100 µM.
For `Clc1nc(Cl)c(Cc2ccccc2)c(Cl)n1`, the TGI in the assay on RXF 393 renal was 11.1 µM; in the assay on NCI-H23 lung, 37.5 µM; in the assay with OVCAR-5 ovarian it was 38.2 µM; with BT-549 breast, 8.52 µM; in the assay on SK-MEL-2 melanoma it was greater than 100 µM; with SK-MEL-5 melanoma, 8.39 µM. Moreover, the TGI in the assay on T-47D breast is 42.4 µM; in the assay on OVCAR-4 ovarian, 29.4 µM; in the assay with HL-60(TB) leukemia, greater than 100 µM.
Turning to `O=C1C(=O)c2ccccc2C(O)=C1CCCCCCCCC1CCCCC1`, the TGI in the assay on NCI-H23 lung amounted to 14.5 µM; in the assay on OVCAR-5 ovarian it was 32.2 µM; in the assay with BT-549 breast, 27.5 µM; in the assay on SK-MEL-2 melanoma it was 30.2 µM; in the assay on SK-MEL-5 melanoma it was 23.7 µM; with T-47D breast it was 21.5 µM. In the assay on OVCAR-4 ovarian, this compound returned a TGI greater than 100 µM.
Consider `COC(=O)c1cc2oc(/C=C3\SC(=S)N(NC(C)=O)C3=O)cc2n1Cc1ccccc1`, for which the GI50 in the assay on RXF 393 renal is 2.81 µM; in the assay on NCI-H23 lung, 7.12 µM; in the assay on OVCAR-5 ovarian, 7.36 µM; with BT-549 breast, 3.34 µM; with SK-MEL-2 melanoma, 18.5 µM; in the assay with SK-MEL-5 melanoma, 2.08 µM. For the same compound, the GI50 in the assay with HOP-92 NSCLC was 0.196 µM; with HL-60(TB) leukemia, 2.14 µM. In addition, the TGI with RXF 393 renal was 16.8 µM; in the assay with NCI-H23 lung, 16.8 µM; in the assay with OVCAR-5 ovarian, 19.1 µM; in the assay with BT-549 breast it was 28.7 µM; in the assay with SK-MEL-2 melanoma, greater than 50 µM; with SK-MEL-5 melanoma, 10.7 µM. Further, the TGI with HOP-92 NSCLC was found to be 2.59 µM; in the assay with HL-60(TB) leukemia, 13.8 µM.
For `CCOC1C=CCCO1` (centres undefined), the TGI in the assay on RXF 393 renal, with NCI-H23 lung, in the assay on OVCAR-5 ovarian, in the assay with SK-MEL-2 melanoma, with SK-MEL-5 melanoma and with T-47D breast was greater than 100 µM throughout. For the same compound, the TGI in the assay on HOP-92 NSCLC, in the assay on OVCAR-4 ovarian and with HL-60(TB) leukemia was greater than 100 µM throughout.
Turning to `COc1ccc2nc(C)cc(Nc3ccccc3O)c2c1`, the GI50 is 38.5 µM in the assay with NCI-H23 lung; 28.9 µM in the assay with OVCAR-5 ovarian; 37.1 µM in the assay with BT-549 breast; 27.1 µM with SK-MEL-2 melanoma; 15.4 µM in the assay with SK-MEL-5 melanoma; 32.8 µM in the assay on T-47D breast. For the same compound, the GI50 is 10.9 µM in the assay with HOP-92 NSCLC, 22.4 µM with OVCAR-4 ovarian and 21 µM with HL-60(TB) leukemia. Also, the TGI was greater than 100 µM with NCI-H23 lung; greater than 100 µM in the assay with OVCAR-5 ovarian; greater than 100 µM in the assay on BT-549 breast; 86.8 µM in the assay with SK-MEL-2 melanoma; 30.4 µM with SK-MEL-5 melanoma; 96.8 µM with T-47D breast. The TGI was 61.2 µM in the assay on HOP-92 NSCLC, greater than 100 µM in the assay on OVCAR-4 ovarian and 48 µM with HL-60(TB) leukemia.
Consider `CC1/C(=N/Nc2ccc([N+](=O)[O-])cc2)CC2C3(C)CCC2(C(C)C(=O)O)C(=O)C13` (centres undefined), for which the GI50 was 3.18 µM in the assay with RXF 393 renal; 29.1 µM in the assay on NCI-H23 lung; greater than 100 µM with OVCAR-5 ovarian; 12.3 µM in the assay on BT-549 breast; 8.75 µM in the assay on SK-MEL-2 melanoma; 11.4 µM in the assay on SK-MEL-5 melanoma. Moreover, the figures for the GI50 in the assay with T-47D breast, in the assay with HOP-92 NSCLC and in the assay on OVCAR-4 ovarian were 4.14 µM, 23.6 µM and greater than 100 µM, respectively. Also, the TGI in the assay with RXF 393 renal, in the assay on NCI-H23 lung, with OVCAR-5 ovarian, in the assay on BT-549 breast, in the assay on SK-MEL-2 melanoma and with SK-MEL-5 melanoma was greater than 100 µM throughout. Further, the TGI in the assay on T-47D breast, with HOP-92 NSCLC and in the assay on OVCAR-4 ovarian was greater than 100 µM throughout.
For the compound `COc1cc(-c2oc3c(OC)c(O)c(OC)c(O)c3c(=O)c2OC)ccc1O`, the TGI with NCI-H23 lung is greater than 100 µM; in the assay with OVCAR-5 ovarian it was greater than 100 µM; in the assay with BT-549 breast, greater than 100 µM; in the assay on SK-MEL-2 melanoma, 74.9 µM; in the assay on SK-MEL-5 melanoma it was greater than 100 µM; with T-47D breast, 67.1 µM. For the same compound, the TGI in the assay on OVCAR-4 ovarian and with HL-60(TB) leukemia was greater than 100 µM each time.
`CSC1C(=O)c2ccccc2/C(=N/Nc2nc3ccccc3s2)C1C` (centres undefined): the GI50 with NCI-H23 lung was 11.2 µM; with OVCAR-5 ovarian, 14.5 µM; with BT-549 breast, 8.52 µM; in the assay with SK-MEL-2 melanoma, 7.34 µM; in the assay with SK-MEL-5 melanoma it was 1.6 µM; in the assay with T-47D breast it was 8.65 µM. Besides, the GI50 was 7.93 µM in the assay with HOP-92 NSCLC and 2.14 µM with HL-60(TB) leukemia. Further, the TGI is 28.3 µM in the assay with NCI-H23 lung; 29.6 µM with OVCAR-5 ovarian; 19.6 µM with BT-549 breast; 18 µM with SK-MEL-2 melanoma; 9.78 µM in the assay on SK-MEL-5 melanoma; greater than 50 µM in the assay on T-47D breast. In addition, the TGI is 25.2 µM in the assay with HOP-92 NSCLC and 43 µM with HL-60(TB) leukemia.
For `O=C(CCCCCCC(=O)Nc1ccc2c(c1)/C(=C/c1ccc[nH]1)C(=O)N2)NO`, the GI50 is 0.487 µM in the assay on RXF 393 renal; 1.88 µM with NCI-H23 lung; 0.755 µM with OVCAR-5 ovarian; 1.87 µM with BT-549 breast; 0.851 µM in the assay with SK-MEL-2 melanoma; 0.24 µM in the assay on SK-MEL-5 melanoma. In addition, the GI50 in the assay on HOP-92 NSCLC was 0.317 µM; with OVCAR-4 ovarian, 1.27 µM; in the assay with HL-60(TB) leukemia, 0.464 µM. Moreover, the TGI was 3.66 µM in the assay with RXF 393 renal; 14.8 µM with NCI-H23 lung; 5.75 µM with OVCAR-5 ovarian; 22 µM in the assay with BT-549 breast; 7.13 µM in the assay with SK-MEL-2 melanoma; 1.41 µM in the assay on SK-MEL-5 melanoma. Besides, the TGI in the assay with HOP-92 NSCLC was 2.76 µM; with OVCAR-4 ovarian, 52 µM; in the assay with HL-60(TB) leukemia it was greater than 100 µM.
For the compound `N#C[S-].[Au+].c1ccc(CN2[CH-]N(Cc3ccccc3)C(c3ccccc3)=C2c2ccccc2)cc1`, the GI50 was 0.546 µM with RXF 393 renal; 1.21 µM in the assay with OVCAR-5 ovarian; 0.47 µM in the assay with BT-549 breast; 0.337 µM in the assay with SK-MEL-2 melanoma; 0.292 µM with HOP-92 NSCLC; 0.413 µM in the assay with OVCAR-4 ovarian. Also, the GI50 in the assay with HL-60(TB) leukemia is 0.414 µM. The TGI with RXF 393 renal was determined as 1.86 µM; in the assay on OVCAR-5 ovarian, 3.28 µM; in the assay with BT-549 breast, 1.88 µM; with SK-MEL-2 melanoma, 1.26 µM; with HOP-92 NSCLC it was 1 µM; in the assay on OVCAR-4 ovarian it was 2.1 µM. This compound came in with a TGI with HL-60(TB) leukemia of 2.34 µM.
With `CC(C)C[C@@H]1NC(=O)[C@@H]2CCCN2C(=O)[C@@H]2CCCN2C(=O)[C@H](CC(C)C)NC(=O)[C@H](CO)NC(=O)[C@H](CCCCN)NC(=O)[C@H]([C@H](C)O)NC(=O)[C@@H]2CCCC[C@@H](NC1=O)C(=O)N[C@@H](Cc1ccccc1)C(=O)N1CCC[C@H]1C(=O)N[C@@H](CC(=O)O)C(=O)NCC(=O)N[C@@H](CCCN=C(N)N)C(=O)N2`, the GI50 with RXF 393 renal, in the assay on NCI-H23 lung, with OVCAR-5 ovarian, in the assay with BT-549 breast, in the assay with SK-MEL-2 melanoma and in the assay on SK-MEL-5 melanoma was greater than 50 µM throughout. Also, the GI50 in the assay with T-47D breast, in the assay with HOP-92 NSCLC and in the assay with OVCAR-4 ovarian was greater than 50 µM each time. Further, the TGI in the assay on RXF 393 renal, with NCI-H23 lung, with OVCAR-5 ovarian, in the assay with BT-549 breast, with SK-MEL-2 melanoma and with SK-MEL-5 melanoma was greater than 50 µM in each case. Further, the TGI in the assay on T-47D breast, in the assay on HOP-92 NSCLC and with OVCAR-4 ovarian was greater than 50 µM throughout.
For the compound `OCCNCCNc1c2ccccc2nc2oc3ccccc3c12`, the GI50 in the assay on OVCAR-5 ovarian is 24.2 µM; with BT-549 breast it was 13.3 µM; with SK-MEL-2 melanoma it was 20.6 µM; with SK-MEL-5 melanoma, 8.97 µM; with T-47D breast, 11.7 µM; with HOP-92 NSCLC, 6.15 µM. Besides, the GI50 in the assay with OVCAR-4 ovarian was 10.2 µM; in the assay with HL-60(TB) leukemia it was 12.4 µM. The TGI in the assay on OVCAR-5 ovarian is 71.6 µM; in the assay on BT-549 breast, 28.2 µM; with SK-MEL-2 melanoma, 43.9 µM; in the assay on SK-MEL-5 melanoma, 21.1 µM; in the assay with T-47D breast, 38.4 µM; in the assay with HOP-92 NSCLC, 25.7 µM. For the same compound, the figures for the TGI in the assay on OVCAR-4 ovarian and in the assay on HL-60(TB) leukemia were 34.6 µM and 50.5 µM, respectively.
On to `CCCCCCCCCCCC[n+]1ccc(C(N)=O)cc1`, for which the GI50 with RXF 393 renal was 1.74 µM; in the assay on NCI-H23 lung, 2.81 µM; in the assay with OVCAR-5 ovarian, 1.47 µM; in the assay with BT-549 breast it was 1.93 µM; with SK-MEL-2 melanoma it was 3.51 µM; in the assay on SK-MEL-5 melanoma, 1.63 µM. Also, the GI50 in the assay with T-47D breast was 3.06 µM; with OVCAR-4 ovarian it was 4.73 µM. Moreover, the TGI in the assay on RXF 393 renal amounted to 5.46 µM; with NCI-H23 lung, 14 µM; in the assay on OVCAR-5 ovarian, 4.56 µM; in the assay with BT-549 breast it was 4.7 µM; with SK-MEL-2 melanoma, 9.13 µM; in the assay with SK-MEL-5 melanoma, 3.05 µM. The TGI with T-47D breast was found to be 11.8 µM; with OVCAR-4 ovarian, 17.5 µM.
In the case of `C[C@@H]1C[C@@]2(O[C@@H]2C)C(=O)O[C@@H]2CCN3CC=C(COC(=O)[C@]1(C)O)[C@H]23`, the TGI in the assay on NCI-H23 lung, with OVCAR-5 ovarian, with BT-549 breast, with SK-MEL-2 melanoma, in the assay with SK-MEL-5 melanoma and in the assay on T-47D breast was greater than 100 µM throughout. Also, the TGI with HOP-92 NSCLC, with OVCAR-4 ovarian and in the assay with HL-60(TB) leukemia was greater than 100 µM in each case.
